Measurements from patent publication US5475132A, “Antifungal agents based on amides containing a phenyl group” (Rhone-Poulenc Agrochimie, priority 1988, dated 1995).
Where two headings read alike, the source gives them in different places.

Test system: Phytophthora citrophthora
Experiment: Example B3: action on phytopathogenic soil fungi, growth on agar in Petri dishes
Assay type: cell-based
Conditions: 120 h, read-out: inhibition of the development of the fungus
[1] = 30 ppm, agar medium, 22° C., 5 days

Structure (SMILES) | inhibition at 30 ppm [1] [%] | inhibition at 30 ppm [%]
COCCN(C)C(=O)c1ccc(-c2ccc(Br)cc2)nc1-c1ccc(OC)c(OC)c1 [Compound 393] | ≥ 80 | 
COc1ccc(-c2nc(-c3ccc(Cl)cc3)ccc2C(=O)N2CCOCC2)cc1OC [Compound 345] | ≥ 80 | 
O=C(c1ccc(Br)cc1-c1ccc2c(c1)OCO2)N1CCOCC1 [Compound 224] | ≥ 80 | 
COc1ccc(-c2nc(N3CCCCC3)ncc2C(=O)N2CCOCC2)cc1OC [Compound 458] | ≥ 80 | 
COc1ccc(-c2nc(-c3ccc(F)cc3)c(C)cc2C(=O)N2CCOCC2)cc1OC [Compound 368] | ≥ 80 | 
COCCN(C)C(=O)c1ccc(Cl)cc1-c1ccc(OC)c(OC)c1 [Compound 210] | ≥ 80 | 
COc1ccc(-c2nc(SCc3ccc(Cl)cc3)ncc2C(=O)N2CCOCC2)cc1OC [Compound 435] | ≥ 80 | 
CCN(C)C(=O)c1ccc(Cl)cc1-c1ccc(OC)c(OC)c1 [Compound 209] | ≥ 80 | 
COc1ccc(-c2nc(-c3ccc(Cl)cc3)ccc2C(=O)N(C)OC)cc1OC [Compound 394] | ≥ 80 | 
COc1ccc(C2=C(C(=O)N3CCOCC3)Cc3cc(OC)c(OC)cc32)cc1 [Compound 149] | ≥ 80 | 
COc1ccc(-c2c(C(=O)N3CCOCC3)sc3c(F)cccc23)cc1OC [Compound 122] | ≥ 80 | 
COc1ccc(-c2nc(-c3ccccc3)ccc2C(=O)N(C)CCOC(C)=O)cc1OC [Compound 396] | ≥ 80 | 
CCN(C)C(=O)c1ccc(-c2ccccc2)nc1-c1ccc(OC)c(OC)c1 [Compound 369] | ≥ 80 | 
COc1ccc(-c2nc(-c3ccccc3C)ccc2C(=O)N2CCOCC2)cc1OC [Compound 391] | ≥ 80 | 
CCCN(C)C(=O)c1ccc(-c2ccccc2)nc1-c1ccc(OC)c(OC)c1 [Compound 365] | ≥ 80 | 
COc1ccc(-c2nc(-c3ccccc3Cl)ccc2C(=O)N2CCOCC2)cc1OC [Compound 392] | ≥ 80 | 
COc1ccc(-c2c(Br)cccc2C(=O)N2CCOCC2)cc1OC [Compound 223] | ≥ 80 | 
COc1ccc(-c2nc(-c3ccc(Cl)cc3)ccc2C(=O)N(C)Cc2ccco2)cc1OC [Compound 378] | ≥ 80 | 
COc1ccc(-c2nc(-c3ccccc3)ccc2C(=O)N2CCOCC2)cc1OC [Compound 301, N-[2-(3,4-dimathoxyphenyl)-6-phenylnicotinoyl]morpholine] | ≥ 80 | 

Structure (SMILES) | inhibition at 30 ppm [1] [%] | inhibition at 30 ppm [%]
COc1ccc(-c2nc(-c3ccc(Cl)cc3)ccc2C(=O)N(C)CC#N)cc1OC [Compound 363] | ≥ 80 | 
COCCN(C)C(=O)c1ccc(-c2ccccc2)nc1-c1ccc(OC)c(OC)c1 [Compound 354] | ≥ 80 | 
COc1ccc(-c2nc(-c3ccccc3)ccc2C(=O)N(C)C(C)C)cc1OC [Compound 360] | ≥ 80 | 
COc1ccc(-c2c(C(=O)N3CCOCC3)cnn2-c2ccc(Cl)cc2)cc1OC [Compound 608, 2-(4-Chlorophenyl)-3-(3,4-dimethoxyphenyl)-4-(morpholinocarbonyl)pyrazole] | ≥ 80 | 
COCCN(C)C(=O)c1sc2ccccc2c1-c1ccc(OC)c(OC)c1 [Compound 158] | ≥ 80 | 
COc1ccc(-c2c(C(=O)N3CCOCC3)sc3ccc(C(F)(F)F)cc23)cc1OC [Compound 133] | ≥ 80 | 
COc1ccc(-c2nc(-c3cccc4ccccc34)ccc2C(=O)N2CCOCC2)cc1OC [Compound 3114] | ≥ 80 | 
COc1ccc(-c2cc(-c3ccc(F)cc3)ccc2C(=O)N2CCOCC2)cc1OC [Compound 201, 2-(3,4-Dimethoxyphenyl)-4-(4-fluorophenyl)-1-morpholinocarbonylbenzene] | ≥ 80 | 
COc1ccc(-c2c(C(=O)N3CCCC(O)C3)sc3ccccc23)cc1OC (centres unmarked) [Compound 164] | ≥ 80 | 
COc1ccc(-c2cc(-c3ccccc3)ccc2C(=O)N2CCOCC2)cc1OC [Compound 202] | ≥ 80 | 
CCN(C)C(=O)c1ccc(-c2ccsc2)nc1-c1ccc(OC)c(OC)c1 [Compound 3118] | ≥ 80 | 
COc1ccc(-c2cc(C=C(C)C)ccc2C(=O)N2CCOCC2)cc1OC [Compound 235] | ≥ 80 | 
COCCN(C)C(=O)c1sc2ccc(F)cc2c1-c1ccc(OC)c(OC)c1 [Compound 169] | ≥ 80 | 
CCN(C)C(=O)c1ccc(-c2ccc(C)cc2)cc1-c1ccc2c(c1)OCO2 [Compound 230] | ≥ 80 | 
COc1ccc(-c2nc(-c3ccc4ccccc4c3)ccc2C(=O)N2CCOCC2)cc1OC [Compound 3115] | ≥ 80 | 
COc1ccc(-c2nc(-c3ccccc3)ncc2C(=O)N2CCOCC2)cc1OC [Compound 414] | ≥ 80 | 
C=C(C)c1ccc(C(=O)N(C)CCOC)c(-c2ccc(OC)c(OC)c2)c1 [Compound 213] | ≥ 80 | 
COc1ccc(-c2nc(Oc3ccc(C)cc3)ncc2C(=O)N2CCOCC2)cc1OC [Compound 433, 4-(3,4-dimethoxyphenyl)-2-(4-methylphenoxy)-5-morpholinocarbonylpyrimidine] | ≥ 80 | 
COc1ccc(-c2c(C(=O)N3CCC(=O)CC3)sc3ccccc23)cc1OC [Compound 162] |  | ≥ 80

Structure (SMILES) | inhibition at 30 ppm [1] [%] | inhibition at 30 ppm [%]
COc1ccc(-c2c(C(=O)N3CCOCC3)sc3ccc(NC(=O)c4ccc(Cl)cc4)cc23)cc1OC [Compound 102, 2-(4-Morpholinocarbonyl)-5-(4-chlorobenzoylamino)-3-(3,4-dimethoxyphenyl)benzothiophene] | ≥ 80 | 
CCN(CC)C(=O)c1ccc(-c2ccc(Cl)cc2)nc1-c1ccc(OC)c(OC)c1 [Compound 364] | ≥ 80 | 
COc1ccc(-c2c(C(=O)N3CCOCC3)sc3c(Br)cccc23)cc1OC [Compound 123] | ≥ 80 | 
COc1ccc(-c2cc(Br)ccc2C(=O)N2CCOCC2)cc1OC [Compound 222] | ≥ 80 | 
COc1ccc(-c2cc(-c3ccc4c(c3)OCO4)ccc2C(=O)N2CCOCC2)cc1OC [Compound 239] | ≥ 80 | 
C=CCN(C)C(=O)c1ccc(-c2ccccc2)nc1-c1ccc(OC)c(OC)c1 [Compound 359] | ≥ 80 | 
COc1ccc(-c2nc(-c3ccsc3)ccc2C(=O)N2CCOCC2)cc1OC [Compound 3112] | ≥ 80 | 
COc1ccc(-c2c(C(=O)N3CCOCC3)cc(-c3ccc(Cl)cc3)n2C)cc1OC [Compound 619] | ≥ 80 | 
C=CCN(C)C(=O)c1ccc(-c2ccc(Cl)cc2)nc1-c1ccc(OC)c(OC)c1 [Compound 386] | ≥ 80 | 
COc1ccc(-c2nc(-c3ccc(C(C)C)cc3)ccc2C(=O)N2CCOCC2)cc1OC [Compound 356] | ≥ 80 | 
COc1ccc(-c2nc(-c3ccc(Cl)cc3)ccc2C(=O)N(C)CCO)cc1OC [Compound 383] | ≥ 80 | 
COc1ccc(-c2nc(Oc3ccc(F)cc3)ncc2C(=O)N2CCOCC2)cc1OC [Compound 439] | ≥ 80 | 
COc1ccc(-c2cc(Cl)ccc2C(=O)N2CCOCC2)cc1OC [Compound 208] | ≥ 80 | 
COCCN(C)C(=O)c1cnc(-c2ccccc2)nc1-c1ccc(OC)c(OC)c1 [Compound 416] | ≥ 80 | 
CCN(C)C(=O)c1ccc(-c2ccc(F)cc2)nc1-c1ccc(OC)c(OC)c1 [Compound 350] | ≥ 80 | 
COc1ccc(-c2nc(-c3cccc(C(F)(F)F)c3)ncc2C(=O)N2CCOCC2)cc1OC [Compound 425] | ≥ 80 | 
COc1ccc(-c2c(C(=O)N3CCCC(OC)C3)sc3ccccc23)cc1OC (centres unmarked) [Compound 166] | ≥ 80 | 
CCN(C)C(=O)c1cnc(-c2ccccc2)nc1-c1ccc(OC)c(OC)c1 [Compound 415] | ≥ 80 | 
